Tested on: black mold Aspergillus niger (クロカビ)
Experiment: Antimicrobial test, black mold (PDA plate, colony diameter)
Type: cell-based
Conditions: PDA medium, final concentration 500 mg/L, 25℃, 4 days; for inhibition at 500 µg/mL: 96 h, read-out: inhibition rate

| Compound | inhibition at 500 µg/mL | inhibition rate |
| --- | --- | --- |
| C[S+]([O-])c1ncccc1C(=O)NCCOc1ccc(OC(F)(F)F)cc1 (centres unmarked) [化合物番号5, 2−メチルスルフィニル−N−(2−(4−トリフルオロメトキシフェノキシ)エチル)ニコチン酸アミド] | 50 to 69% |  |
| 2−エトキシ−N−(2−(4−トリフルオロメトキシフェノキシ)エチル)ニコチン酸アミド [化合物番号12] |  | B (B:70〜89%阻害) |
| CS(=O)(=O)c1ncccc1C(=O)NCCOc1ccc(OC(F)(F)F)cc1 [化合物番号4, 2−メチルスルホニル−N−(2−(4−トリフルオロメトキシフェノキシ)エチル)ニコチン酸アミド] | 70 to 89% |  |
| N−(2−(4−トリフルオロメトキシフェノキシ)エチル)−9−トリフルオロメチル−ジピリド[2,3−b:3’,2’−f]1,4−チアゼピン−6(5H)−オン [化合物番号41] |  | C (C:50〜69%阻害) |
| O=C(NCCc1ccc(OC(F)(F)F)cc1)c1ccncc1 [化合物番号33, N−(2−(4−トリフルオロメトキシフェニル)エチル)イソニコチン酸アミド] | 70 to 89% |  |

From patent JP2005330229A, “4−トリフルオロメトキシフェニル(オキシ)エチルアミン誘導体及び抗菌剤” (Ube Industries Ltd, priority 2004, dated 2005)
